The values that follow come from US8492391B2, “Substituted 6-(2-hydroxybenzylamino)purine derivatives, their use as medicaments and compositions containing these derivatives” (Univerzita Palackeho V Olomouci, priority 2009, dated 2013).

Each structure is given as a SMILES string. “Also recorded” adds a separate entry of the source.

The test system of data set [1] is HOS (human osteogenic sarcoma). Kind of data set: Calcein AM cytotoxicity assay, HOS. The data set is classed as cell-based. The note with it: Homo sapiens, read-out: Cytotoxic activity IC50 (μM) HOS. From the text:
Cytotoxicity of the compounds is the major property determining their anticancer effect in vivo. One of the parameters used, as the basis for cytotoxicity assays, is the metabolic activity of viable cells. For example, a microtiter assay, which uses the Calcein AM, is now widely used to quantitate cell proliferation and cytotoxicity. For instance, this assay is used in drug screening programs and in chemosensitivity testing. Because only metabolically active cells cleave Calcein AM, these assays detect viable cells exclusively. The quantity of cleaved Calcein AM corresponds to the number of vital cells in the culture. We have been using the following cell lines: MCF7 (human breast adenocarcinoma), K562 (human chronic myelogenous leukaemia), HOS (human osteogenic sarcoma), HeLa (human cervical carcinoma), HL 60 (human promyelocytic leukaemia), G 361 (human malignant melanoma), CEM (human lymphoblastoid leukaemia). All cell lines were grown in DMEM medium (Gibco BRL) supplemented with 10% (v/v) fetal bovine serum and L-glutamine and maintained at 37° C. in a humidified atmosphere with 5% CO2. For cytotoxicity assays, 10^4 cells were seeded into each well of 96 well plate, allowed to stabilize for at least 2 h and then tested compounds were added at various concentrations ranging from 100 to 0.1 μM in triplicates. Three days after drug addition Calcein AM solution (Molecular Probes) was added and let to enter the cells for 1 hour. Fluorescence of viable cells was quantified using Fluoroskan Ascent (Microsystems).

The subject of data set [2] is C-terminal domain of RNA polymerase II (serine 2 and serine 5 phosphorylation). Briefly: Immunoblotting of RNA polymerase II CTD phosphorylation (CDK9 activity in cells), MCF-7. The data set is classed as cell-based, human. The conditions noted are these: MCF-7 cells. As to the method: Effect of compounds on CDK9 activity in cells was monitored by site-specific phosphorylations of C-terminal domain of RNA polymerase II, a substrate of CDK9, by means of immunoblotting. For immunoblotting, cell were detached with rubber policeman and washed three times with ice-cold PBS and lysed in buffer (50 mM Tris, pH 7.4, 250 mM NaCl, 5 mM EDTA, 50 mM NaF, 1 mM Na3VO4, 1% Nonidet P40) containing mixture of protease and phosphatase inhibitors (Sigma-Aldrich, USA). 20 μg of total proteins were separated by SDS-polyacrylamide gel electrophoresis (SDS-PAGE) and transferred onto nitrocellulose membranes. Membranes were blocked in 5% milk and 0.1% Tween 20 in PBS and probed overnight with specific monoclonal antibodies or rabbit polyclonal sera. Primary antibodies specific for RNA polymerase II (all from Santa Cruz Biotechnology, California, USA) included: (i) N-20 used at 1 μg/ml, (ii) H14, specific for form phosphorylated at phosphoserine 5, used at 6 μg/ml and (iii) H5, specific for form phosphorylated at phosphoserine 2 used at 4 μg/ml. […] All primary antibodies were diluted in PBS containing 5% powdered milk; 0.1% Tween 20. Peroxidase conjugated rabbit anti-mouse immunoglobulin or porcine anti-rabbit immunoglobulin antisera (DAKO, Denmark) were used as the secondary antibodies and visualised with ECL reagents (Amersham-Pharmacia, Little Chalfont, UK). […]

The next data set deals with p53 in RPMI-8226 cells. Briefly: Immunoblotting in RPMI-8226 cells with temperature-sensitive p53 (E285K) at permissive and restrictive temperature. The data set is classed as cell-based, human. As to the method: For immunoblotting, cell were detached with rubber policeman and washed three times with ice-cold PBS and lysed in buffer (50 mM Tris, pH 7.4, 250 mM NaCl, 5 mM EDTA, 50 mM NaF, 1 mM Na3VO4, 1% Nonidet P40) containing mixture of protease and phosphatase inhibitors (Sigma-Aldrich, USA). 20 μg of total proteins were separated by SDS-polyacrylamide gel electrophoresis (SDS-PAGE) and transferred onto nitrocellulose membranes. Membranes were blocked in 5% milk and 0.1% Tween 20 in PBS and probed overnight with specific monoclonal antibodies or rabbit polyclonal sera. […] All primary antibodies were diluted in PBS containing 5% powdered milk; 0.1% Tween 20. Peroxidase conjugated rabbit anti-mouse immunoglobulin or porcine anti-rabbit immunoglobulin antisera (DAKO, Denmark) were used as the secondary antibodies and visualised with ECL reagents (Amersham-Pharmacia, Little Chalfont, UK).
Then, we also determined effect of the compounds on the cell lines expressing some temperature-sensitive mutants of p53. For example, in BT474 and RPMI-8226 cells bearing temperature-sensitive mutant of p53 (E285K), p53 protein switches between mutant and wild-type conformation in a temperature-dependent manner. At restrictive (37° C.) temperature mutated p53 protein is expressed, while after shift to a permissive (30° C.) temperature p53 is folded correctly and functional. To analyze the functional involvement of p53 in the efficiency of the treatment with the compounds, we cultivated RPMI-8226 cells independently at two different temperatures (restrictive or permissive), and exposed them to increasing doses of selected compounds. The cell lysates were prepared and the levels of cell cycle regulators were analysed by immunoblotting.

The next data set has as its system P388D1 leukemia. Kind of data set: Survival model of P388D1 leukemia transplanted intraperitoneally. Format: in vivo, DBA-2 mice. The note with it: 250 mg/kg orally twice daily, Days 1-3 and 7-9. Here is the method:
Screening of biological activity of compound 128 was performed on survival model of P388D1 leukemia transplanted intraperitoneally with 2.10^5 cells. DBA-2 mice were used as a host. One day following the leukemia transplantation, treatment with 128 was initiated. The drug was given orally by gastric gavages in total volume of 200 μl/dose twice daily at dose 250 mg/kg in two chemotherapy cycles (Days 1-3 and 7-9). The compound 128 was solubilized in 5% N-methyl-2-pyrollidine, 30% polyethylene glycol 400, 65% tartar buffer (pH 3.0). Survival analysis of treated animals (10 mice/group) was preformed in comparison with vehicle treated mice using Kaplan-Meier method and the significance was evaluated by the log-rank test. Body weight of experimental animals was evaluated in parallel in order to reflect toxicity and efficacy of therapy. Comparative analysis of body weight was performed using non-parametric t-test.

As a reminder, the IC50 is the concentration that inhibits the measured activity by half. Consider `CCC(CO)Nc1nc(NCc2cccc(OC)c2O)c2ncn(C(C)C)c2n1` (racemic) [Compound 128, (RS)-2-({6-[(2-hydroxy-3-methoxybenzyl)amino]-9-isopropyl-9-H-purin-2-yl}amino)butan-1-ol], for which the concentration for half-maximal inhibition (IC50) in data set [1] was 5.9 µM. Moreover, the “levels of serine 2 and serine 5 phosphorylation of RNA polymerase II CTD” value in data set [2] is given as “substantially reduced; also recorded: is inhibited”. Moreover, in the data set with p53 in RPMI-8226 cells (RPMI-8226 cells), the “drug concentration causing fragmentation of PARP-1, permissive versus restrictive temperature” value is on record as “about two-fold lower drug concentrations”. In addition, the “level of wild-type p53 protein” value in the data set with p53 in RPMI-8226 cells (RPMI-8226 cells at permissive (30° C.) temperature) is on record as “caused accumulation of wild-type p53 protein”. Further, the “level of mutant p53” value in the data set with p53 in RPMI-8226 cells (RPMI-8226 cells at restrictive (37° C.) temperature) is on record as “did not change the levels of mutant p53”. The “expression of anti-apoptotic protein Mcl-1” value with p53 in RPMI-8226 cells (RPMI-8226 cells, 30° C. versus restrictive temperature) was “suppressed more efficiently at 30 °C”. In addition, in the data set on P388D1 leukemia, the “body weight of treated animals” value was “reducing body weight of treated animals” and the mean survival time is recorded as 27.4 days. Besides, the “survival (Kaplan-Meier, log-rank test)” value with P388D1 leukemia (vs vehicle, P=0.0427) was “significantly better survival”.
